Laboratory results published in PMC5911928 (European journal of medicinal chemistry, 2017).
Converted amounts (≈) assume the structure as drawn.

Tests used:
B. subtilis [1] = test: MIC against B. subtilis; assay type: cell-based; settings: Bacillus subtilis
HaCaT cells = test: MTS cytotoxicity analysis against human keratinocytes; assay type: cell-based; settings: MTS assay, tested at 8, 16, 32, 64 μg/mL
J774 cells = test: MTS cytotoxicity analysis against murine macrophages; assay type: cell-based; settings: MTS assay, tested at 8, 16, 32, 64 μg/mL
MRSA USA300 = test: In vivo antibacterial activity in MRSA-infected C. elegans; design: species or system Caenorhabditis elegans; settings: for reduction of the burden of MRSA USA300: C. elegans AU37, 20 μg/mL, 18 hours treatment
[2] = system: UDP-N-acetylmuramyl pentapeptide in S. aureus NRS107 (RN4220); test: Detection of final soluble cell wall precursor by HPLC/MS; assay type: cell-based, Staphylococcus aureus; settings: 10 × MIC, 30 minutes
B. subtilis [3] = test: Bacterial Cytological Profiling; assay type: cell-based, Bacillus subtilis; settings: for cell shape (BCP) in media containing MSM: LB-MSM, two hours, 4i 4 × MIC, oxacillin 5×MIC, D-cycloserine 1×MIC
[4] = Human microsomal stability analysis; assay type: in vitro ADME; settings: human liver microsomes
[5] = system: drug-resistant S. aureus clinical isolates; test: Anti-MRSA activity over the panel of S. aureus clinical isolates; assay type: cell-based, Staphylococcus aureus; settings: against both MRSA and VRSA
MRSA USA400 = test: Time-kill assay; settings: 4 × MIC, MRSA USA400, 37 °C, 24-hour incubation
[6] = system: MRSA USA400 inside infected murine macrophage (J774) cells; test: Eradication of intracellular MRSA in infected macrophages; settings: 16 μg/mL, J774 cells infected with MRSA USA400
[7] = system: S. aureus NRS107 (RN4220); test: microbe, parasite or virus in culture; assay type: cell-based; settings: Staphylococcus aureus
VRSA4 = test: MIC/MBC broth microdilution; assay type: cell-based; settings: Staphylococcus aureus
VRSA10 = test: MIC/MBC broth microdilution; assay type: cell-based; settings: Staphylococcus aureus
[8] = pH 7.4, NADPH-Free CLint, without NADPH

N[C@@H]1CONC1=O [ᴅ-cycloserine]
MIC (B. subtilis [1]): 37.5 µg/mL (≈ 367 µM)

Cc1nc(-c2ccc3ccccc3c2)sc1-c1cnc(NC(=N)N)s1 [Compound 4i, 1-(4′-Methyl-2′-(naphthalen-2-yl)-[5,5′-bithiazol]-2-yl)guanidine]
concentration up to which not toxic (HaCaT cells): 32000 ng/mL
concentration up to which non-toxic (J774 cells): 16000 ng/mL
reduction of the burden of MRSA USA300 (MRSA USA300): approximately 30%
reduction of MRSA burden relative to lead compound 1c and vancomycin (MRSA USA300; C. elegans, 20 μg/mL, 18 hours, same experimental conditions): three
peak of UDP-N-acetylmuramyl pentapeptide (accumulation) [2]: noticeable increase
effect on cells (BCP) (B. subtilis [3]; 5 × MIC, two hours of exposure): lysed
cell shape (BCP) in media containing MSM (B. subtilis [3]): misshapen and formed small bulges
microsomal CLint ([4]; pH 7.4, NADPH-Dependent CLint, with NADPH): 17.3 µL/min/mg
microsomal CLint [4, 8]: < 9.6 µL/min/mg
MBC values relative to MIC values [5]: matched or were two-fold higher
time to completely eliminate MRSA cells (MRSA USA400): four
reduction of MRSA CFU/mL in infected macrophages ([6]; four hours of treatment): unable to reduce

Cc1onc(-c2ccccc2Cl)c1C(=O)N[C@@H]1C(=O)N2[C@@H]1SC(C)(C)[C@@H]2C(=O)O [cloxacillin]
MIC (B. subtilis [1]): 0.47 µg/mL (≈ 1.08 µM)

CN[C@H](CC(C)C)C(=O)N[C@H]1C(=O)N[C@@H](CC(N)=O)C(=O)N[C@H]2C(=O)N[C@H]3C(=O)N[C@H](C(=O)N[C@H](C(=O)O)c4cc(O)cc(O)c4-c4cc3ccc4O)[C@H](O)c3ccc(c(Cl)c3)Oc3cc2cc(c3O[C@@H]2O[C@H](CO)[C@@H](O)[C@H](O)[C@H]2O[C@H]2C[C@](C)(N)[C@H](O)[C@H](C)O2)Oc2ccc(cc2Cl)[C@H]1O [Vancomycin, reference compound]
reduction of the burden of MRSA USA300 (MRSA USA300): low reduction
peak of UDP-N-acetylmuramyl pentapeptide (accumulation) [2]: noticeable increase
reduction of MRSA CFU in infected macrophages ([6]; 24 hours of treatment): not able to reduce

CCCCc1ccc(-c2nc(C)c(/C(C)=N/NC(=N)N)s2)cc1 [Compound 1a, reference compound]
microsomal CLint [4, 8]: < 9.6 µL/min/mg

Cc1onc(-c2ccccc2)c1C(=O)N[C@@H]1C(=O)N2[C@@H]1SC(C)(C)[C@@H]2C(=O)O [oxacillin, reference compound]
cell shape (BCP) in media containing MSM (B. subtilis [3]): large bulges and misshapen cells

CC(=O)NC[C@H]1CN(c2ccc(N3CCOCC3)c(F)c2)C(=O)O1 [Linezolid]
MIC [7]: 2 µg/mL (≈ 5.93 µM)
MIC (VRSA4): 2 µg/mL (≈ 5.93 µM)
MIC (VRSA10): 2 µg/mL (≈ 5.93 µM)
